Measurements from article doi:10.1101/2023.10.01.560353v1 (bioRxiv, 2023).
≈ marks a conversion by molar mass, not a printed value. Peptide text beside a SMILES is read from it.

What follows are compounds tested on 11 clinically relevant bacterial pathogens (assay: MIC over the panel of pathogens). Details: Table S17; lowest MIC over the strains tested.
Assay type: cell-based
`CC(C)C[C@H](NC(=O)[C@H](CC(C)C)NC(=O)[C@@H](NC(=O)[C@H](CCCNC(=N)N)NC(=O)[C@H](C)NC(=O)[C@H](Cc1ccccc1)NC(=O)[C@H](CCCNC(=N)N)NC(=O)[C@H](CO)NC(=O)[C@H](Cc1c[nH]c2ccccc12)NC(=O)[C@H](CCCNC(=N)N)NC(=O)[C@H](CC(C)C)NC(=O)[C@H](CCCCN)NC(=O)[C@H](CC(C)C)NC(=O)[C@@H](N)Cc1ccccc1)C(C)C)C(=O)O` [Equusin-1] (H-FLKLRWSRFARVLL-OH) was tested, and the “MIC (lowest MIC value obtained in the antimicrobial activity assays)” value (shortened to “MIC”) was 1000 mM (≈ 1810 mg/mL).
`CC[C@H](C)[C@H](NC(=O)[C@H](CCCCN)NC(=O)[C@H](CC(C)C)NC(=O)[C@H](Cc1c[nH]cn1)NC(=O)[C@@H](N)CC(C)C)C(=O)N[C@@H](CC(C)C)C(=O)N[C@@H](CCCCN)C(=O)N[C@H](C(=O)N[C@H](C(=O)N[C@@H](CCCNC(=N)N)C(=O)N[C@@H](CC(C)C)C(=O)N[C@@H](CC(C)C)C(=O)O)[C@@H](C)CC)[C@@H](C)CC` [Elephasin-1] (H-LHLKILKIIRLL-OH) was tested, and the “MIC” value was 4000 mM (≈ 5890 mg/mL).
In the case of `CC[C@H](C)[C@H](NC(=O)[C@H](CCCCN)NC(=O)[C@H](CC(N)=O)NC(=O)[C@@H](NC(=O)[C@@H](NC(=O)[C@H](Cc1c[nH]c2ccccc12)NC(=O)[C@H](CC(C)C)NC(=O)[C@H](CCC(N)=O)NC(=O)[C@H](CC(C)C)NC(=O)[C@@H](NC(=O)[C@H](C)NC(=O)[C@H](CC(C)C)NC(=O)[C@@H](N)CCCNC(=N)N)[C@@H](C)O)[C@@H](C)O)[C@@H](C)CC)C(=O)N[C@H](C(=O)N[C@@H](CCCCN)C(=O)N[C@@H](CCC(N)=O)C(=O)N[C@@H](CC(C)C)C(=O)N[C@@H](CCSC)C(=O)N[C@H](C(=O)N1CCC[C@H]1C(=O)N[C@@H](CC(C)C)C(=O)N[C@@H](CC(N)=O)C(=O)N[C@@H](CCCCN)C(=O)N1CCC[C@H]1C(=O)NCC(=O)N[C@@H](Cc1c[nH]cn1)C(=O)N[C@@H](CCCCN)C(=O)O)[C@@H](C)CC)[C@@H](C)O` [Ararin-2] (H-RLATLQLWTINKITKQLMIPLNKPGHK-OH), the “MIC” value is reported as 16000 mM (≈ 50500 mg/mL).
With `CC[C@H](C)[C@H](NC(=O)[C@H](CCCCN)NC(=O)[C@@H](NC(=O)[C@H](Cc1c[nH]c2ccccc12)NC(=O)[C@H](CCCCN)NC(=O)[C@@H](N)CCCCN)[C@@H](C)O)C(=O)N[C@@H](Cc1ccc(O)cc1)C(=O)N[C@@H](CO)C(=O)N1CCC[C@H]1C(=O)N[C@@H](CC(C)C)C(=O)N[C@@H](CO)C(=O)N[C@@H](CC(C)C)C(=O)O` [Smilodin-1] (H-KKWTKIYSPLSL-OH) the “MIC” value was 64000 mM (≈ 93700 mg/mL).
In the case of `CC[C@H](C)[C@H](NC(=O)[C@H](CCCNC(=N)N)NC(=O)[C@H](Cc1c[nH]cn1)NC(=O)[C@H](CCCCN)NC(=O)[C@@H](NC(=O)CNC(=O)[C@H](CCCNC(=N)N)NC(=O)[C@H](C)NC(=O)[C@H](CCCCN)NC(=O)[C@@H](NC(=O)[C@H](C)NC(=O)[C@@H]1CCCN1C(=O)[C@H](CC(C)C)NC(=O)[C@H](CCC(N)=O)NC(=O)[C@H](CO)NC(=O)[C@H](Cc1ccccc1)NC(=O)[C@H](CC(C)C)NC(=O)[C@H](CC(C)C)NC(=O)[C@@H](NC(=O)[C@@H](N)CS)C(C)C)C(C)C)[C@@H](C)O)C(=O)N[C@@H](CCCCN)C(=O)N[C@@H](Cc1c[nH]c2ccccc12)C(=O)N[C@@H](CC(N)=O)C(=O)N[C@@H](CCCNC(=N)N)C(=O)N[C@@H](CCCCN)C(=O)O` [Equusin-4] (H-CVLLFSQLPAVKARGTKHRIKWNRK-OH), the “MIC” value is reported as 16000 mM (≈ 47200 mg/mL).
With `CC[C@H](C)[C@H](NC(=O)[C@H](CC(N)=O)NC(=O)[C@H](CC(C)C)NC(=O)[C@@H](NC(=O)[C@H](Cc1ccccc1)NC(=O)[C@@H]1CCCN1C(=O)[C@@H]1CCCN1C(=O)[C@@H](NC(=O)[C@H](CO)NC(=O)[C@H](CC(C)C)NC(=O)[C@H](CCCCN)NC(=O)[C@H](CCCCN)NC(=O)[C@H](Cc1ccc(O)cc1)NC(=O)[C@@H](NC(=O)[C@@H](N)CCCCN)[C@@H](C)CC)[C@@H](C)O)[C@@H](C)O)C(=O)N[C@@H](CCCNC(=N)N)C(=O)N[C@H](C(=O)N[C@@H](CC(C)C)C(=O)N1CCC[C@H]1C(=O)N[C@@H](CCCCN)C(=O)N[C@H](C(=O)N[C@@H](CCCCN)C(=O)N[C@@H](Cc1ccccc1)C(=O)N1CCC[C@H]1C(=O)N[C@@H](CCCCN)C(=O)O)C(C)C)[C@@H](C)O` [Mylodonin-3] (H-KIYKKLSTPPFTLNIRTLPKVKFPK-OH) the “MIC” value was 16000 mM (≈ 47300 mg/mL).
In the case of `CC[C@H](C)[C@H](NC(=O)[C@@H](N)[C@@H](C)O)C(=O)N[C@@H](CCCCN)C(=O)N[C@@H](CC(C)C)C(=O)N[C@@H](Cc1ccccc1)C(=O)N[C@@H](CC(C)C)C(=O)N[C@@H](CO)C(=O)N[C@@H](Cc1ccccc1)C(=O)N[C@@H](CCCCN)C(=O)N[C@@H](CC(C)C)C(=O)O` [Xenothrixin-1] (H-TIKLFLSFKL-OH), the “MIC” value is reported as 8000 mM (≈ 9680 mg/mL).
`CC[C@H](C)[C@H](NC(=O)[C@H](Cc1ccccc1)NC(=O)[C@H](CC(N)=O)NC(=O)[C@@H](NC(=O)[C@@H](NC(=O)[C@H](Cc1c[nH]cn1)NC(=O)[C@@H](N)CC(C)C)[C@@H](C)O)[C@@H](C)CC)C(=O)N[C@H](C(=O)N[C@@H](CCCCN)C(=O)N[C@@H](CO)C(=O)N[C@@H](CC(C)C)C(=O)N[C@@H](CC(C)C)C(=O)N[C@@H](CC(C)C)C(=O)O)[C@@H](C)CC` [Bisonin-1] (H-LHTINFIIKSLLL-OH) was tested, and the “MIC” value was 16000 mM (≈ 24400 mg/mL).
For `CC[C@H](C)[C@H](NC(=O)[C@H](CCCCN)NC(=O)[C@@H](N)CCCNC(=N)N)C(=O)N[C@@H](CC(C)C)C(=O)NCC(=O)N[C@@H](CC(=O)O)C(=O)N[C@@H](CC(C)C)C(=O)N[C@@H](CCCCN)C(=O)N[C@@H](Cc1ccccc1)C(=O)N[C@@H](CC(C)C)C(=O)N[C@@H](CCC(=O)O)C(=O)N[C@@H](CO)C(=O)N[C@@H](CC(C)C)C(=O)N[C@@H](CCCCN)C(=O)N[C@H](C(=O)N[C@@H](Cc1ccc(O)cc1)C(=O)O)[C@@H](C)O` [Anomalopterin-1] (H-RKILGDLKFLESLKTY-OH), the “MIC” value was 64000 mM (≈ 123000 mg/mL).
With `CC[C@H](C)[C@H](NC(=O)CNC(=O)[C@H](Cc1c[nH]cn1)NC(=O)[C@H](CC(N)=O)NC(=O)[C@H](CCCCN)NC(=O)[C@H](CCC(N)=O)NC(=O)[C@@H](N)CCCNC(=N)N)C(=O)N[C@@H](Cc1c[nH]cn1)C(=O)N[C@@H](Cc1ccccc1)C(=O)N[C@@H](CCCNC(=N)N)C(=O)N[C@H](C(=O)N[C@@H](CC(C)C)C(=O)N[C@@H](C)C(=O)N[C@@H](CCCCN)C(=O)N[C@@H](C)C(=O)N[C@@H](CC(C)C)C(=O)N[C@@H](CCCNC(=N)N)C(=O)O)C(C)C` [Hesperelin-3] (H-RQKNHGIHFRVLAKALR-OH) the “MIC” value was 64000 mM (≈ 131000 mg/mL).
With `CC[C@H](C)[C@H](NC(=O)[C@@H]1CCCN1C(=O)[C@H](CC(N)=O)NC(=O)[C@@H]1CCCN1C(=O)[C@@H]1CCCN1C(=O)[C@H](CCCCN)NC(=O)[C@@H](N)CCCCN)C(=O)N[C@@H](CCCCN)C(=O)N1CCC[C@H]1C(=O)N[C@@H](CCCCN)C(=O)N[C@H](C(=O)N1CCC[C@H]1C(=O)N[C@@H](CC(C)C)C(=O)N[C@@H](CO)C(=O)N[C@@H](C)C(=O)N1CCC[C@H]1C(=O)N[C@@H](CCCNC(=N)N)C(=O)N[C@@H](CCCCN)C(=O)N[C@@H](CO)C(=O)N1CCC[C@H]1C(=O)N[C@@H](CC(N)=O)C(=O)N[C@H](C(=O)N[C@H](C(=O)N[C@@H](CCCCN)C(=O)N[C@@H](Cc1ccc(O)cc1)C(=O)N[C@@H](CCCNC(=N)N)C(=O)N[C@@H](CC(C)C)C(=O)N[C@@H](CCCCN)C(=O)N[C@@H](Cc1ccccc1)C(=O)N[C@@H](CCCNC(=N)N)C(=O)O)C(C)C)[C@@H](C)O)C(C)C` [Mammuthusin-5] (H-KKPPNPIKPKVPLSAPRKSPNTVKYRLKFR-OH) the “MIC” value was 32000 mM (≈ 112000 mg/mL).
With `CC[C@H](C)[C@H](NC(=O)[C@H](CC(C)C)NC(=O)[C@H](Cc1c[nH]cn1)NC(=O)[C@@H](NC(=O)[C@H](CC(C)C)NC(=O)[C@H](CC(C)C)NC(=O)[C@H](Cc1c[nH]cn1)NC(=O)CN)[C@@H](C)CC)C(=O)NCC(=O)N[C@@H](CCCCN)C(=O)N[C@@H](C)C(=O)N[C@H](C(=O)N[C@@H](CC(C)C)C(=O)N[C@@H](C)C(=O)N[C@@H](CC(C)C)C(=O)O)[C@@H](C)O` [Arctoterin-1] (H-GHLLIHLIGKATLAL-OH) the “MIC” value was 64000 mM (≈ 100000 mg/mL).
For `CC[C@H](C)[C@H](NC(=O)[C@H](Cc1c[nH]cn1)NC(=O)[C@@H](N)CC(C)C)C(=O)NCC(=O)N[C@@H](CC(C)C)C(=O)N[C@H](C(=O)N[C@@H](CCCCN)C(=O)N[C@H](C(=O)N[C@@H](Cc1ccc(O)cc1)C(=O)N[C@@H](CC(C)C)C(=O)NCC(=O)N[C@@H](CO)C(=O)N[C@@H](Cc1ccccc1)C(=O)N[C@@H](C)C(=O)N[C@@H](CC(C)C)C(=O)O)[C@@H](C)O)[C@@H](C)CC` [Eudyptin-1] (H-LHIGLIKTYLGSFAL-OH), the “MIC” value was 64000 mM (≈ 105000 mg/mL).
`CC[C@H](C)[C@H](NC(=O)[C@H](Cc1ccc(O)cc1)NC(=O)[C@H](C)NC(=O)[C@@H](N)CCCNC(=N)N)C(=O)N[C@@H](CS)C(=O)N[C@@H](CCCNC(=N)N)C(=O)N[C@@H](CCCCN)C(=O)N[C@@H](CCCCN)C(=O)N[C@@H](Cc1ccccc1)C(=O)N[C@@H](CC(C)C)C(=O)N[C@@H](CO)C(=O)N[C@@H](CC(C)C)C(=O)N[C@@H](CCCNC(=N)N)C(=O)N[C@@H](CCCCN)C(=O)N[C@@H](C)C(=O)N[C@@H](CO)C(=O)N[C@H](C(=O)N[C@@H](CCCCN)C(=O)N[C@@H](CC(C)C)C(=O)N[C@@H](CCC(N)=O)C(=O)N[C@@H](CO)C(=O)N[C@@H](CC(C)C)C(=O)N[C@H](C(=O)N[C@@H](CCCNC(=N)N)C(=O)N[C@@H](CCSC)C(=O)N[C@@H](CCCCN)C(=O)O)C(C)C)[C@@H](C)CC` [Equusin-2] (H-RAYICRKKFLSLRKASIKLQSLVRMK-OH) was tested, and the “MIC” value was 8000 mM (≈ 25100 mg/mL).
With `CC[C@H](C)[C@H](NC(=O)[C@H](CCCCN)NC(=O)[C@H](CO)NC(=O)[C@H](CC(N)=O)NC(=O)[C@H](Cc1ccccc1)NC(=O)[C@H](Cc1c[nH]cn1)NC(=O)[C@H](Cc1ccccc1)NC(=O)[C@@H](N)Cc1c[nH]c2ccccc12)C(=O)N[C@@H](CC(C)C)C(=O)N[C@@H](CC(C)C)C(=O)N[C@@H](CC(C)C)C(=O)N[C@H](C(=O)NCC(=O)N[C@@H](CC(C)C)C(=O)O)[C@@H](C)O` [Mylodonin-1] (H-WFHFNSKILLLTGL-OH) the “MIC” value was 8000 mM (≈ 13500 mg/mL).
